# Measured values published in US7150974B1, “Parathyroid hormone receptor binding method” (The General Hospital Corporation, priority 1991, dated 2006).
# Target: T1, opossum kidney PTH/PTHrP receptor clone, OK-H (Didelphis virginiana, UniProt P25107, I132F/S86P)
# T1 construct: expressed in transfected cells; host or cells: COS cells, transient, plasmid OK-H (pcDNA I)
# Assay: Intracellular free calcium, COS cells expressing OK-H
# Assay type: cell-based
# Conditions: FIG. 10, smaller extent, or not at all, compared with OK-O or R15B
# Method: Measurements of intracellular calcium levels in cells transfected with PTH/PTHrP receptor cDNAs were performed using Fura-2 AM (acetomethoxy ester of Fura-2, Molecular Probes Inc., Eugene, Oreg.) loaded cells. Details of the methodology are:
# Coverslips plated with COS cells were incubated in Fura-2 AM loading buffer containing, in mM: HEPES (N-[2-Hydroxyethyl]piperazine-N′-[2-ethanesulfonic acid]), 20; CaCl2, 1; KCl 5; NaCl, 145; MgSO4, 0.5; NaHCO3, 25; K2HPO4, 1.4; glucose, 10; and Fura-2 AM 91-(2-5′-carboxyoxazol-2′-yl)-6-aminobenzofuran-5oxy-(2′-amino-5′-methylphenoxy)ethane-N,N,N′,N′-tetraaecetic acid acetomethoxy ester), 0.5; at 37° C. at pH7.4, aerated with 95% air and 5% CO2 for 45 minutes. Cells loaded with Fura-2 AM were then washed with a modified Krebs-Heinseleit (KH) buffer containing, in mM: HEPES, 20; CaCl2, 1; KCl, 5; NaCl, 145; MgSO4, 0.5; Na2HPO4, 1; glucose, 5; pH7.4. To check that cleavage of the ester occurred, the excitation spectra after different times of Fura-2 AM incubation were measured. […]
# To measure fluorescence of individual cells, the cover slips were placed in a microscope tissue chamber (Biophysica Technologies, Inc., MD). […] Fura-2 fluorescence was excited with a 75 watt Xenon arc lamp placed at the focal point of a condenser (Photon Technologies International (PTI) Inc., NJ). […]
# T1 sequence (P25107 other isoform, or with tags, fused parts or gaps S86P/I132F): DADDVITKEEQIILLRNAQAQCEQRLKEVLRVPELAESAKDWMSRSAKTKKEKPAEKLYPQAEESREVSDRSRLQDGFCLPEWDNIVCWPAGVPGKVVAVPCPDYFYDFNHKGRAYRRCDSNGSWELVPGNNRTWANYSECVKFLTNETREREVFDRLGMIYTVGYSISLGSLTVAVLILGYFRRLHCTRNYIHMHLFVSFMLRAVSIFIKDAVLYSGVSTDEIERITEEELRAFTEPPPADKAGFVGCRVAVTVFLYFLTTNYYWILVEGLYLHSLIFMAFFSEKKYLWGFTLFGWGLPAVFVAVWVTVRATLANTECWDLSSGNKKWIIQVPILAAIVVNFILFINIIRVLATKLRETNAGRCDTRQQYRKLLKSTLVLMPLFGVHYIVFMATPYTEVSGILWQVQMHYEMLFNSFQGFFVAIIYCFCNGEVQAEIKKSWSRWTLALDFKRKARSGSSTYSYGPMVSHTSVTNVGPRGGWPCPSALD
substance,measurement,value
"[Nle^8,18, Tyr^34]bPTH(1-34)amide",increase in concentration of intracellular free calcium (mean),39 nM
